Laboratory results published in patent US20120083522A1, “MODULATION OF INFLAMMATORY RESPONSES BY FACTOR XI” (Isis Pharmaceuitcals, inc., priority 2009, published 2012).
In the oligonucleotide strings, read from the 5' end, every base follows the letter of its sugar. An asterisk marks phosphorothioate; unmarked linkages are phosphodiester. Other units and linkages are bracketed, terminal groups are in braces. A string of capitals states the bases alone. e = 2'-O-(2-methoxyethyl) (MOE); [5mC] = 5-methylcytosine; d = 2'-deoxy (DNA)

Test system: soluble CD40 ligand (CD40L)
Assay: Colitis Study E: CD40L plasma levels
Assay type: in vivo, Swiss Webb mice
Settings: for CD40L plasma levels: DSS-treated mice, day 7, 40 mpk
Description: Two groups 8 Swiss Webb mice were dosed with 40 mg/kg of ISIS 404071 injected subcutaneously twice a week for 3 weeks. Two control groups of 8 Swiss Webb mice were dosed with PBS subcutaneously twice a week for 3 weeks. Both the ASO treated groups and one of the control groups were then given 4% DSS in distilled water for 7 days ad libitum. One of the ASO and DSS treated groups was also given intravenous injections of 20 μg of recombinant human Factor XI protein (Haematologic Technologies Inc.) for 7 consecutive days, starting the day before DSS treatment. Mice were sacrificed at the end of the study on day 7 after DSS was administered.
Plasma levels of soluble CD40 ligand (CD40L) are known to be elevated in cases of inflammatory bowel disease (Ludwiczek, O. et al., Int. J. Colorectal Disease. 2003. 18: 142-147) and may be considered a marker of intestinal inflammation. The effect of antisense inhibition of Factor XI on CD40L levels in the plasma was evaluated at the end of the study on day 7 after DSS was administered and the results are presented in Table 39. CD40L levels in plasma were measured by commercially available ELISA kits (Bender MedSystems, Vienna, Austria, eBioscience, San Diego, Calif.) according to the manufacture's protocols.

In the case of “TGGTAATCCACTTTCAGAGG (eT*eG*eG*eT*eA*dA*dT*d[5mC]*d[5mC]*dA*d[5mC]*dT*dT*dT*d[5mC]*eA*eG*eA*eG*eG) [ISIS 404071, 5-10-5 MOE gapmer targeting murine Factor XI, target start site 869]”, the “CD40L levels in plasma (in words)” value (Colitis Study E, day 7) is reported as “decreased”, the CD40L plasma levels (no human recombinant FXI) is reported as 1.5 ng/mL and the CD40L plasma levels (plus human recombinant FXI 20 ug/mouse/day) is reported as 1.6 ng/mL.
